According to ChEMBL document CHEMBL4828736, “Discovery of ASTX029, A Clinical Candidate Which Modulates the Phosphorylation and Catalytic Activity of ERK1/2” (J Med Chem, 2021):

Legend:
in vitro [1] = conditions: CD1, mouse, microsomes
in vitro [2] = conditions: human, microsomes
CYP3A4 = CYP3A4 (Homo sapiens, UniProt P08684); assay: in vitro; conditions: recombinant enzyme
in vivo [3] = conditions: BALB/c, mouse, iv, 0.5 mg/kg
in vivo [4] = conditions: BALB/c, mouse, iv, 0.5 mg/kg; remark: listed apart in the source
in vivo [5] = conditions: BALB/c, mouse, po, 5 mg/kg
in vivo [6] = conditions: BALB/c, mouse, po, 5 mg/kg; remark: listed apart in the source
in vivo [7] = conditions: BALB/c, mouse, po, 5 mg/kg; remark: listed apart in the source
physchem = conditions: buffer, pH 7.4
COLO 205 = assay: cells; format: functional, cell-based; conditions: Homo sapiens, COLO 205, 96 h
A-375 = assay: cells; format: functional, cell-based; conditions: Homo sapiens, A-375, 96 h

Sequence of CYP3A4 (P08684 whole entry): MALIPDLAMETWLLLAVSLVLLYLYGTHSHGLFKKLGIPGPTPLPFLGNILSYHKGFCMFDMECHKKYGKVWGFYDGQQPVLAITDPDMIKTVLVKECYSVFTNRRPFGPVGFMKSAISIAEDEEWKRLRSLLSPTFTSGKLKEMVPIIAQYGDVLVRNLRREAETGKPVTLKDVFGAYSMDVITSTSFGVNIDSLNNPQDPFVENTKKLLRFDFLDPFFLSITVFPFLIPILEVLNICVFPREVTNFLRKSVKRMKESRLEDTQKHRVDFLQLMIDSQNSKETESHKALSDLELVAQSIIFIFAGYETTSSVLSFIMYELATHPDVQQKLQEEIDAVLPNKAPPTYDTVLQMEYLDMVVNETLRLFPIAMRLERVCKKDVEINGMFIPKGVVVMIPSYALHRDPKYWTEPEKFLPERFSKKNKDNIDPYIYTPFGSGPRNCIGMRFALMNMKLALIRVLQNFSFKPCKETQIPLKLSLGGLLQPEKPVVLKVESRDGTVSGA

| SMILES | half-life at 40 min, 1 µM (in vitro [1]) [min] | half-life at 40 min, 1 µM (in vitro [2]) [min] | half-life at 40 min, 1 µM (CYP3A4) [min] | clearance at 24 h (in vivo [3]) [mL/min/kg] | Vd at 24 h (in vivo [4]) [L/kg] | AUC at 24 h (in vivo [5]) [ng·h/mL] | half-life at 24 h (in vivo [6]) [min] | bioavailability at 24 h (in vivo [7]) [%] | chromatographic logD (physchem) | IC50 (COLO 205) [nM] | IC50 (A-375) [nM] |
| --- | --- | --- | --- | --- | --- | --- | --- | --- | --- | --- | --- |
| O=C(CN1Cc2ccc(-c3nc(NC4CCOCC4)ncc3Cl)cc2C1=O)N1CCCc2ccccc2C1 | < 5 | < 5 |  |  |  |  |  |  |  |  |  |
| COc1cc(F)cc([C@@H](CO)NC(=O)CN2C(=O)c3cc(-c4nc(NC5CCOCC5)ncc4Cl)ccc3[C@H]2C)c1 |  | 22 | 7.3 |  |  |  |  |  |  |  |  |
| COc1cc(F)cc([C@@H](CO)NC(=O)[C@@H](C)N2Cc3ccc(-c4nc(Nc5ccnc(OC)c5)ncc4Cl)cc3C2=O)c1 | 31 | 25 | 27 | 4.6 | 0.56 | 4100 | 60 | 23 | 4.2 |  |  |
| COc1cc(F)cc([C@@H](CO)NC(=O)[C@@H](C)N2Cc3ccc(-c4ccnc(NC5CCOCC5)n4)cc3C2=O)c1 |  | 62 | 49 | 17 | 1 | 320 | 72 | 7 | 3.2 | 15 |  |
| Cc1cccc([C@@H](CO)NC(=O)[C@@H](C)N2Cc3ccc(-c4nc(NC5CCOCC5)ncc4Cl)cc3C2=O)c1 | 31 | 12 |  |  |  |  |  |  | 3.9 |  |  |
| COc1cc(F)cc([C@@H](CO)NC(=O)CN2Cc3ccc(-c4nc(NC5CCOCC5)ncc4Cl)cc3C2=O)c1 | 86 | 31 |  | 54 | 1.4 | 150 | 90 | 10 | 3.3 |  | 4 |
| COc1cc([C@@H](CO)NC(=O)[C@@H](C)N2Cc3ccc(-c4nc(NC5CCOCC5)ncc4Cl)cc3C2=O)ccn1 | 120 | 33 |  | 6.8 | 0.26 | 2400 | 90 | 20 | 3 |  |  |
| Cc1cccc([C@@H](CO)NC(=O)CN2Cc3ccc(-c4nc(NC5CCOCC5)ncc4Cl)cc3C2=O)c1 | 65 | 40 |  | 11 | 0.55 | 3000 | 150 | 41 | 3 |  |  |
| C[C@H](C(=O)N[C@H](CO)c1cc(F)cc(OCCN(C)C)c1)N1Cc2ccc(-c3nc(NC4CCOCC4)ncc3Cl)cc2C1=O |  | 60 | 10 |  |  |  |  |  |  |  |  |
| C[C@H](C(=O)N[C@H](CO)c1cc(F)cc(N2CCN(C)CC2)c1)N1Cc2ccc(-c3nc(NC4CCOCC4)ncc3Cl)cc2C1=O |  | 51 |  | 124 | 3.8 | 18 |  |  | 3.6 |  |  |
| O=C(CN1Cc2ccc(-c3nc(NC4CCOCC4)ncc3Cl)cc2C1=O)N[C@@]1(CO)CCc2ccccc21 | 20 | 10 |  | 35 | 0.91 | 960 | 53.4 | 40 | 3.6 |  |  |
